In PubChem BioAssay AID1919003 (Molecular Pharmacology Branch, DTP, NCI, 2023):

Test system: 786-0 complex spheroids with HUVEC/MSC, growth % test/control
Experiment: Anticancer human tumor 786-0 cell line growth inhibition [AhR];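 further: compound exposure lasted seven days before the read-out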
Conditions: for IC50: curve of first compound; for viability, T/C: stronger effect = lower value
Summary of the method: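 Agents were dosed in half-log steps down from roughly clinical Cmax, or from 10 microM where Cmax was unknown, alone and with AhR antagonists. Read-out: percent test/control growth of tumor spheroids containing HUVEC and MSC stromal cells.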

[1] = second compound 0.1 µM, first compound 0.0316 µM
[2] = second compound 0.1 µM, first compound 0.1 µM
[3] = second compound 0.316 µM, first compound 0.0316 µM
[4] = second compound 0.316 µM, first compound 0.1 µM
[5] = second compound 1 µM, first compound 0.0316 µM
[6] = second compound 1 µM, first compound 0.1 µM
[7] = second compound 3.16 µM, first compound 0.0316 µM
[8] = second compound 3.16 µM, first compound 0.1 µM
[9] = second compound 10 µM, first compound 0.0316 µM
[10] = second compound 10 µM, first compound 0.1 µM
[11] = second compound 0.1 µM, first compound 0.316 µM
[12] = second compound 0.1 µM, first compound 1 µM
[13] = second compound 0.1 µM, first compound 3.16 µM
[14] = second compound 0.1 µM, first compound 10 µM
[15] = second compound 0.316 µM, first compound 0.316 µM
[16] = second compound 0.316 µM, first compound 1 µM
[17] = second compound 0.316 µM, first compound 3.16 µM
[18] = second compound 0.316 µM, first compound 10 µM
[19] = second compound 1 µM, first compound 0.316 µM
[20] = second compound 1 µM, first compound 1 µM
[21] = second compound 1 µM, first compound 3.16 µM
[22] = second compound 1 µM, first compound 10 µM
[23] = second compound 3.16 µM, first compound 0.316 µM
[24] = second compound 3.16 µM, first compound 1 µM
[25] = second compound 3.16 µM, first compound 3.16 µM
[26] = second compound 3.16 µM, first compound 10 µM
[27] = second compound 10 µM, first compound 0.316 µM
[28] = second compound 10 µM, first compound 1 µM
[29] = second compound 10 µM, first compound 3.16 µM
[30] = second compound 10 µM, first compound 10 µM

## Cn1ncnc1C1c2n[nH]c(=O)c3cc(F)cc(c23)NC1c1ccc(F)cc1 (stereo not given) + Cc1ccccc1N=Nc1ccc(NC(=O)c2ccnn2C)c(C)c1
Second compound 0.1 µM
  IC50: > 100 nM
Second compound 0.316 µM
  IC50: > 100 nM
Second compound 1 µM
  IC50: > 100 nM
Second compound 3.16 µM
  IC50: > 100 nM
Second compound 10 µM
  IC50: > 100 nM
Second compound 0.1 µM, first compound 0.000316 µM
  viability, T/C: 104%
Second compound 0.1 µM, first compound 0.001 µM
  viability, T/C: 102%
Second compound 0.1 µM, first compound 0.00316 µM
  viability, T/C: 107%
Second compound 0.1 µM, first compound 0.01 µM
  viability, T/C: 101%
[1]
  viability, T/C: 101%
[2]
  viability, T/C: 107%
Second compound 0.316 µM, first compound 0.000316 µM
  viability, T/C: 103%
Second compound 0.316 µM, first compound 0.001 µM
  viability, T/C: 106%
Second compound 0.316 µM, first compound 0.00316 µM
  viability, T/C: 106%
Second compound 0.316 µM, first compound 0.01 µM
  viability, T/C: 106%
[3]
  viability, T/C: 110%
[4]
  viability, T/C: 111%
Second compound 1 µM, first compound 0.000316 µM
  viability, T/C: 101%
Second compound 1 µM, first compound 0.001 µM
  viability, T/C: 106%
Second compound 1 µM, first compound 0.00316 µM
  viability, T/C: 108%
Second compound 1 µM, first compound 0.01 µM
  viability, T/C: 117%
[5]
  viability, T/C: 99.7%
[6]
  viability, T/C: 110%
Second compound 3.16 µM, first compound 0.000316 µM
  viability, T/C: 92.3%
Second compound 3.16 µM, first compound 0.001 µM
  viability, T/C: 105%
Second compound 3.16 µM, first compound 0.00316 µM
  viability, T/C: 92%
Second compound 3.16 µM, first compound 0.01 µM
  viability, T/C: 94%
[7]
  viability, T/C: 88.9%
[8]
  viability, T/C: 91.2%
Second compound 10 µM, first compound 0.000316 µM
  viability, T/C: 98.6%
Second compound 10 µM, first compound 0.001 µM
  viability, T/C: 112%
Second compound 10 µM, first compound 0.00316 µM
  viability, T/C: 90.5%
Second compound 10 µM, first compound 0.01 µM
  viability, T/C: 93.5%
[9]
  viability, T/C: 95.3%
[10]
  viability, T/C: 112%

## NS(=O)(=O)OCC1CC(n2ccc3c(NC4CCc5ccccc54)ncnc32)CC1O (stereo not given) + Cc1ccccc1N=Nc1ccc(NC(=O)c2ccnn2C)c(C)c1
Second compound 0.1 µM
  IC50: 563 nM
Second compound 0.316 µM
  IC50: 652 nM
Second compound 1 µM
  IC50: 499 nM
Second compound 3.16 µM
  IC50: 437 nM
Second compound 10 µM
  IC50: 374 nM
[1]
  viability, T/C: 90%
[2]
  viability, T/C: 78.6%
[11]
  viability, T/C: 65.5%
[12]
  viability, T/C: 37%
[13]
  viability, T/C: 8.68%
[14]
  viability, T/C: 5.47%
[3]
  viability, T/C: 87.3%
[4]
  viability, T/C: 69.5%
[15]
  viability, T/C: 68.1%
[16]
  viability, T/C: 42.2%
[17]
  viability, T/C: 10.6%
[18]
  viability, T/C: 6.57%
[5]
  viability, T/C: 88%
[6]
  viability, T/C: 68%
[19]
  viability, T/C: 63.2%
[20]
  viability, T/C: 37.5%
[21]
  viability, T/C: 9.47%
[22]
  viability, T/C: 5.05%
[7]
  viability, T/C: 73.8%
[8]
  viability, T/C: 65%
[23]
  viability, T/C: 59.4%
[24]
  viability, T/C: 29.1%
[25]
  viability, T/C: 9.11%
[26]
  viability, T/C: 4.17%
[9]
  viability, T/C: 76.1%
[10]
  viability, T/C: 69.5%
[27]
  viability, T/C: 54.3%
[28]
  viability, T/C: 27.4%
[29]
  viability, T/C: 11.3%
[30]
  viability, T/C: 6.68%

## O=C(C=Cc1cccc(S(=O)(=O)Nc2ccccc2)c1)NO + Cc1ccccc1N=Nc1ccc(NC(=O)c2ccnn2C)c(C)c1
Second compound 0.1 µM
  IC50: 6060 nM
Second compound 0.316 µM
  IC50: 6080 nM
Second compound 1 µM
  IC50: 6300 nM
Second compound 3.16 µM
  IC50: 5700 nM
Second compound 10 µM
  IC50: 4610 nM
[1]
  viability, T/C: 89.2%
[2]
  viability, T/C: 103%
[11]
  viability, T/C: 88.4%
[12]
  viability, T/C: 94.3%
[13]
  viability, T/C: 87.7%
[14]
  viability, T/C: 20.9%
[3]
  viability, T/C: 100%
[4]
  viability, T/C: 97.1%
[15]
  viability, T/C: 101%
[16]
  viability, T/C: 101%
[17]
  viability, T/C: 86.4%
[18]
  viability, T/C: 22.1%
[5]
  viability, T/C: 98.2%
[6]
  viability, T/C: 100%
[19]
  viability, T/C: 106%
[20]
  viability, T/C: 93.5%
[21]
  viability, T/C: 90.7%
[22]
  viability, T/C: 22.5%
[7]
  viability, T/C: 85%
[8]
  viability, T/C: 91.4%
[23]
  viability, T/C: 85.8%
[24]
  viability, T/C: 81.9%
[25]
  viability, T/C: 80%
[26]
  viability, T/C: 21.4%
[9]
  viability, T/C: 93.5%
[10]
  viability, T/C: 87.2%
[27]
  viability, T/C: 85.9%
[28]
  viability, T/C: 85.5%
[29]
  viability, T/C: 67.3%
[30]
  viability, T/C: 14.2%
